Data reported in ChEMBL document CHEMBL1201862, “PubChem BioAssay data set” (2004).
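Compound exposure: 48 hours, 5 concentrations, 96-well plates. The concentration for 50% growth inhibition is given as GI50.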 The source made the active and inactive calls. No stated cut-off is given here; in the data, active = GI50 up to about 1.1 µM and inactive = higher.

What was measured:
Assay in all cases: inhibition of tumour cell growth, NCI panel, 48 h
A549 = system: A549
ACHN = system: ACHN
COLO 205 = system: COLO 205
HCT-116 = system: HCT-116
HOP-92 = system: HOP-92
IGROV-1 = system: IGROV-1
K562 = system: K562
KM12 = system: KM12
NCI-H226 = system: NCI-H226
NCI-H23 = system: NCI-H23
NCI-H460 = system: NCI-H460
NCI-H522 = system: NCI-H522
NCI/ADR-RES = system: NCI/ADR-RES
SF-295 = system: SF-295
SK-MEL-5 = system: SK-MEL-5
SW-620 = system: SW-620
T47D = system: T47D
U-251 = system: U-251
UACC-257 = system: UACC-257

Measured: GI50

O=S(=O)(SC1=NCCN1)c1ccc2ccccc2c1
inactive: A549 26.8 µM | ACHN 39.5 µM | COLO 205 18.7 µM | HCT-116 22.5 µM | HOP-92 51.1 µM | IGROV-1 31 µM | K562 22.7 µM | KM12 20.2 µM | NCI-H226 28.9 µM | NCI-H23 22.9 µM | NCI-H460 21.6 µM | NCI-H522 17.4 µM | NCI/ADR-RES 21.8 µM | SF-295 24.8 µM | SK-MEL-5 26.5 µM | SW-620 19.7 µM | T47D 81.7 µM | U-251 23.8 µM | UACC-257 39.4 µM

Cc1ccc(Nc2nc3c(=O)n(C)c(=O)n(C)c3nc2Nc2ccc(C)cc2)cc1
inactive: A549 19.9 µM | ACHN 3.46 µM | COLO 205 4.67 µM | HCT-116 9.27 µM | HOP-92 11.4 µM | IGROV-1 15 µM | K562 6.56 µM | KM12 16.4 µM | NCI-H226 28.8 µM | NCI-H23 15.9 µM | NCI-H460 28.8 µM | NCI-H522 1.15 µM | NCI/ADR-RES 17.2 µM | SF-295 20.8 µM | SK-MEL-5 16.4 µM | SW-620 1.74 µM | T47D 15.5 µM | U-251 16.3 µM | UACC-257 15.7 µM

CN(C)C(=O)Oc1ccc(-c2cn3cc(NC(=O)c4ccccc4)ccc3n2)cc1
inactive: A549 83.4 µM | ACHN > 100 µM | COLO 205 14.3 µM | HCT-116 > 100 µM | HOP-92 > 100 µM | IGROV-1 70.8 µM | K562 19.5 µM | KM12 55.5 µM | NCI-H226 > 100 µM | NCI-H23 > 100 µM | NCI-H460 73.3 µM | NCI-H522 26.4 µM | NCI/ADR-RES > 100 µM | SF-295 > 100 µM | SK-MEL-5 21.4 µM | SW-620 48.5 µM | T47D 21.6 µM | U-251 45.3 µM | UACC-257 53.8 µM

CC1CC2CCCC(=O)C2=C(O)O1 (centres undefined)
inactive: A549 > 100 µM | ACHN > 100 µM | COLO 205 > 100 µM | HCT-116 > 100 µM | HOP-92 > 100 µM | IGROV-1 > 100 µM | K562 > 100 µM | KM12 > 100 µM | NCI-H226 > 100 µM | NCI-H23 > 100 µM | NCI-H460 > 100 µM | NCI-H522 > 100 µM | NCI/ADR-RES > 100 µM | SF-295 > 100 µM | SK-MEL-5 > 100 µM | SW-620 > 100 µM | T47D > 100 µM | U-251 > 100 µM | UACC-257 > 100 µM

Cc1ccc2c(c1)c1ccc3c(c1n2C)C(=O)C=CC3=O
active: K562 0.468 µM | SW-620 0.543 µM
inactive: A549 > 10 µM | ACHN 1.56 µM | COLO 205 1.26 µM | HCT-116 1.51 µM | HOP-92 2.03 µM | IGROV-1 3.52 µM | KM12 6.84 µM | NCI-H226 > 6.85 µM | NCI-H23 2.62 µM | NCI-H460 > 10 µM | NCI-H522 1.23 µM | NCI/ADR-RES 2.96 µM | SF-295 > 10 µM | SK-MEL-5 4.56 µM | T47D 1.63 µM | U-251 > 7.31 µM | UACC-257 2.51 µM

O=c1[nH]nc(-c2ccccc2)n1/N=C/c1cccc([N+](=O)[O-])c1
inactive: A549 > 100 µM | ACHN > 100 µM | COLO 205 > 100 µM | HCT-116 > 100 µM | HOP-92 > 100 µM | IGROV-1 > 100 µM | K562 > 100 µM | KM12 > 100 µM | NCI-H226 > 100 µM | NCI-H23 > 100 µM | NCI-H460 91.6 µM | NCI-H522 8.15 µM | NCI/ADR-RES 41.4 µM | SF-295 59.7 µM | SK-MEL-5 > 100 µM | SW-620 > 100 µM | T47D > 100 µM | U-251 41.5 µM | UACC-257 > 100 µM
